Results reported in paper PMC11870023, “A facile assay for zDHHC palmitoyl transferase activation elucidates effects of mutation and modification” (Journal of Lipid Research, 2025).

What was measured:
Test in all cases: auto-S-palmitoylation of HEK293 membranes, SDS-PAGE fluorescence normalised to tag Western blot
[1] = tested on: T1, mouse zDHHC11; type: cell-based; conditions: pH 7.4, 37 °C; labelled compound; covalent thioester at active-site Cys
T1 construct: full length, HA tag kept (pEF-Bos-HA), HEK293 membrane fraction; the source plasmid set's older numbering used DHHC-11 for Zdhhc23, so the gene is not certain

[2] = molecular target: T2, human zDHHC7 (Homo sapiens, UniProt Q9NXF8); type: cell-based; conditions: pH 7.4, 37 °C, 2 min; labelled compound; covalent thioester at active-site Cys
T2 construct: full length, His6-Myc tag kept (pCEpuro-His6-Myc-1), HEK293 membrane fraction
T2 sequence (Q9NXF8 1-308): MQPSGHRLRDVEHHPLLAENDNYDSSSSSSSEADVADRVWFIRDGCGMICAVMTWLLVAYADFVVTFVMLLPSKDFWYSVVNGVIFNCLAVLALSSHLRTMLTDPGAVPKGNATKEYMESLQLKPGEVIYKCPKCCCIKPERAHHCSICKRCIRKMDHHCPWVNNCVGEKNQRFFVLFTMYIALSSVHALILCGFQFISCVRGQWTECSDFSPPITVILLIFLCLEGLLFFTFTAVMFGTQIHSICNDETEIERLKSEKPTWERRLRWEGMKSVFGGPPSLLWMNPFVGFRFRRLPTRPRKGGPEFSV
Excerpt: auto-S-palmitoylation of HEK293 membranes, SDS-PAGE fluorescence normalised to tag Western blot on human zDHHC7 | N44D mutation within the N-terminal cytoplasmic tail of zDHHC7 (Fig. 4A) had no effect

[3] = molecular target: T2, human zDHHC7; type: cell-based; conditions: pH 7.4, 37 °C, 2 min; labelled compound; covalent thioester at active-site Cys; remark: listed apart in the source
[4] = molecular target: T3, human zDHHC14 (Homo sapiens, UniProt Q8IZN3, C181Y); type: biochemical; conditions: pH 7.4, 37 °C, 2 min; labelled compound; covalent thioester at active-site Cys
T3 construct: full length, His6-Myc tag kept (pCEpuro-His6-Myc-1), HEK293 membrane fraction
T3 sequence (Q8IZN3 1-488 C181Y): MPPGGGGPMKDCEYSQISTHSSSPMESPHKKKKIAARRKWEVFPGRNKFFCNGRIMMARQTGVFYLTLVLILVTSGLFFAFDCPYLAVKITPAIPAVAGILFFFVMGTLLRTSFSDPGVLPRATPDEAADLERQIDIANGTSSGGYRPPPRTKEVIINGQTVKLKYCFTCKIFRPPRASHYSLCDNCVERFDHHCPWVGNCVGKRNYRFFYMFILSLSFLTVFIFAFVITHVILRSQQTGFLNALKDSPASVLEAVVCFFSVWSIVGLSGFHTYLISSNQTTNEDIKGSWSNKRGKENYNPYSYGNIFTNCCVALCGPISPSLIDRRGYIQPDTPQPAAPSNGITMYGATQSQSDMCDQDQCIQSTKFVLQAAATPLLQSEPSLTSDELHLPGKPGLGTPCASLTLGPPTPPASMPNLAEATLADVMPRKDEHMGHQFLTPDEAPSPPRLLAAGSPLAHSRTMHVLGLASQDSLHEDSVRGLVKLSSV

CC(C)(COP(=O)(O)OP(=O)(O)OC[C@H]1O[C@@H](n2cnc3c(N)ncnc32)[C@H](O)[C@@H]1OP(=O)(O)O)[C@@H](O)C(=O)NCCC(=O)NCCSC(=O)CCCCCCCCCCCCCCCNc1ccc([N+](=O)[O-])c2nonc12 [NBD-palmitoyl-CoA, N-[(7-nitro-2-1,3-benzoxadiazol-4-yl)-methyl]amino palmitoyl]
Km [1]: 0.89 ± 0.23 µM | Km [2]: 2.85 ± 0.72 µM | Km [3]: 3.4 ± 0.57 µM | auto-S-palmitoylation of HEK293 membranes, SDS-PAGE fluorescence normalised to t [4]: C→Y mutation of Cys181 within the second zinc finger domain (Fig. 4A) eliminated auto-S-palmitoylation
